# Results taken from patent US7351874B2, “Mouse model for fatty acid amide-related neurobehaviors” (The Scripps Research Institute, priority 2001, dated 2008).
# Entries after “also recorded” stand apart in the source; their conditions may differ.
# Key:
# FAAH−/− and FAAH+/+ mice [1] = assay: Locomotor activity (hypomotility), grid crossings 15 to 20 min post-injection; format: in vivo, mouse
# Experimental: (§1) All drugs were administered intraperitoneal (ip) in a mixture of 1 part ethanol: 1 part EMULPHOR alcohol (GAF Corp.; New York N.Y.): 18 parts saline (10 μl/g body weight), except naloxone was administered ip in saline.
# (§2) Locomotor activity was assessed by placing each mouse in a clear plexiglass cage (18×10×8.5 inches; l.w.h) that was marked in 7 cm square grids on the floor of the cage. The number of grids that were traversed by the hind paws was counted from 15 to 20 min post-injection. Nociception was assessed using the tail immersion assay, wherein each mouse was hand-held with approximately 1 cm of the tip of the tail immersed into a water bath maintained at 56.0° C. and the latency for the animal to withdraw its tail was scored. The cutoff was 15 sec, and the data were expressed as the percent maximum possible effect (% MPE), where % MPE=100×{(post-injection latency−pre-injection latency)/(15−pre-injection latency)}. Baseline thermal nociception was also analyzed using the hot plate test, wherein the latency to jump or lick/shake a hind paw was scored.
# FAAH−/− and FAAH+/+ mice [2] = assay: Tail immersion assay (antinociception); format: in vivo, mouse
# Experimental: as §1, §2
# FAAH−/− and FAAH+/+ mice [3] = assay: Catalepsy bar test; format: in vivo, mouse
# Experimental: as §1
# (§3) Catalepsy was evaluated using the bar test, in which the front paws of each subject were placed on a rod (0.75 cm diameter) that was elevated 4.5 cm above the surface. Mice that remained motionless with their paws on the bar for 10 sec (with the exception of respiratory movements) were scored as cataleptic. Rectal temperature was determined by inserting a thermocouple probe 1.2 cm into the rectum; the temperature was obtained using a telethermometer. The pre-injection rectal temperatures for FAAH^+/+ (35.6±0.2° C., n=28) and FAAH^−/− mice (35.5±0.1° C., n=30) mice were equivalent. Catalepsy and rectal temperature were assessed at 60 min post-injection unless otherwise indicated.
# FAAH−/− and FAAH+/+ mice [4] = assay: Rectal temperature (hypothermia); format: in vivo, mouse
# Experimental: as §1, §3
# FAAH−/− mice = assay: Overt cage behavior after anandamide; format: in vivo, mouse
# Description: If startled by sound or touch, the knockout mice reacted with brief fits of spastic movement, then quickly reentered a flattened, immobile state. Anandamide-treated FAAH^−/− mice remained immobile for 2 to 4 hr, depending on dose, after which they gradually reinitiated normal cage activities, including movement, rearing, and grooming.
# FAAH−/− and FAAH+/+ mice [5] = assay: Neurobehavioral assays taken together (hypomotility, analgesia, catalepsy, hypothermia); format: in vivo, mouse
# Experimental: as §1, §2
# as §3, with “The pre-injection rectal temperatures for FAAH^+/+ (35.6±0.2° C., n=28) and FAAH^−/− mice (35.5±0.1° C., n=30) mice were equivalent.” left out
# [6] = system: FAAH(−/−), FAAH-TG(+) and FAAH(−/−), FAAH-TG(−) mice; assay: Pharmacological effects of anandamide in mice with FAAH expression restricted to the nervous system; format: in vivo, mouse; conditions: 50 mg/kg i.p.
# Experimental: Animals were tested at 20 minutes (A) and 60 minute (B and C) following treatment with anandamide. HT−=FAAH(+/−), FAAH-TG(−); KO+=FAAH(−/−), FAAH-TG(+); KO−=FAAH(−/−), FAAH-TG(−).
# Exogenously applied and endogenously produced fatty acid amides induce a variety of behavioral effects in mammals, which may reflect either central or peripheral sites of action. In wild type mammals, FAAH is not only expressed in the central and peripheral nervous system, but also in a variety of non-nervous system peripheral tissues, including liver, kidney, and testis. […] To address this issue, the mouse FAAH cDNA was placed under the control of the neural specific enolase (NSE) promoter (Forss-Petter et al. (1990) Neuron 5, 187-197) and this construct was used to generate transgenic mice (mixed background of C57Bl/6 and Balb/c) by pronuclear injection methods following standard literature procedures (Gordon, J. W. (1993) Methods Enzymol. 225, 747-771). These animals were screened by Southern blotting for genomic incorporation of the FAAH gene and multiple FAAH-positive transgenic [FAAH-TG(+)] lines were identified. One of these FAAH-TG(+) lines was then crossed to mice heterozygotic for FAAH deletion [FAAH(+/−) mice]. To create representative mouse genotypes for biochemical and behavioral analysis, the following breeding pairs were set up: FAAH(+/−),FAAH-TG(+)×FAAH(−/−),FAAH-TG(−). […]
# [7] = cited from earlier work
# [8] = system: FAAH−/−, FAAH+/− and FAAH+/+ mice; assay: Hot plate test, response latency before and after treatment; format: in vivo, mouse
# Experimental: as §2
# To test whether enhanced levels of endogenous anandamide were responsible for the analgesia observed in FAAH^−/− mice, the pain responses of these animals and FAAH^+/+ mice were tested prior to and after treatment with vehicle or with SR141716A.
# [9] = target: T1, fatty acid amide hydrolase (FAAH) (Mus musculus, UniProt O08914); assay: FAAH activity assay, conversion of 14C-labeled substrates by thin layer chromatography; format: biochemical; conditions: pH 7.2
# T1 construct: Brain and liver were isolated from homozygous wild type (FAAH^+/+), heterozygous (FAAH^+/−) and homozygous knockout (FAAH^−/−) mice; from tissue; host or cells: mouse brain and liver extracts (129SvJ-C57BL/6 intercross offspring)
# T1 sequence (O08914 1-579): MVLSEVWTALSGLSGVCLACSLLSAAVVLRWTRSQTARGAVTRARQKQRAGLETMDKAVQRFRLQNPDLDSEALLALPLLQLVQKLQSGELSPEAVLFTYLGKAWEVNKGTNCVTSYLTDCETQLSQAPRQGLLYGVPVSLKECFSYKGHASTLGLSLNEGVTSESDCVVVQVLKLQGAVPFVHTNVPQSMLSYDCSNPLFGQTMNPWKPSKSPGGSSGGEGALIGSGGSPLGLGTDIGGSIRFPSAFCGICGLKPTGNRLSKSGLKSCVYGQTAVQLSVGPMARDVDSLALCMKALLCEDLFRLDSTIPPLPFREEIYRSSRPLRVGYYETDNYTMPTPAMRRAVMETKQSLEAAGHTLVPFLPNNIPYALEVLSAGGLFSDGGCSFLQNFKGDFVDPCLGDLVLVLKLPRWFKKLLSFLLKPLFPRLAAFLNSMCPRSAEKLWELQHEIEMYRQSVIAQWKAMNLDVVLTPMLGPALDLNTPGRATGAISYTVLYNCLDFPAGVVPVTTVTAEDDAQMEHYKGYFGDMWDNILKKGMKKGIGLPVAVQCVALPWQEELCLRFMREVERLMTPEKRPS
# Experimental: The mice also were examined for FAAH enzymatic activity. FAAH activity assays for oleamide and anandamide were measured by following the conversion of ^14C-labeled substrates using a thin layer chromatography assay essentially as described by Patricelli et al. (Biochemistry 38:9804-9812, 1999), except that enzyme assays were conducted at pH 7.2. […] Brain extracts from FAAH^−/− mice hydrolyzed anandamide and oleamide 50 to 100 times more slowly than brain extracts from the homozygous wild type mice.
# [10] = FAAH−/− mice, 50 mg/kg ip, 60 min post-injection
# [11] = FAAH−/− mice, 10 mg/kg, 10 min prior to anandamide 50 mg/kg
smiles,measurement,setting,value
"CCCCC/C=C\C/C=C\C/C=C\C/C=C\CCCC(=O)NCCO [anandamide, N-arachidonoyl-ethanolamine]",reduction in spontaneous activity,"FAAH−/− and FAAH+/+ mice [1]; FAAH−/− mice, 50 mg/kg ip",84±8%
same,ED50,"FAAH−/− and FAAH+/+ mice [1]; Mus musculus, ip, read-out: ED50, hypomotility (locomotor activity)",< 6.25 mg/kg
same,"analgesia in the tail immersion test, maximum possible effect (MPE)","FAAH−/− and FAAH+/+ mice [2]; FAAH−/− mice, 50 mg/kg ip",89±11%
same,ED50,"FAAH−/− and FAAH+/+ mice [2]; Mus musculus, ip, read-out: ED50, antinociception (tail-immersion)",13 mg/kg
same,time by which catalepsy gradually dissipated,"FAAH−/− and FAAH+/+ mice [3]; FAAH−/− mice, 50 mg/kg",≤ 4 h
same,time post-treatment of most extreme catalepsy,"FAAH−/− and FAAH+/+ mice [3]; FAAH−/− mice, 50 mg/kg",1 h
same,"cataleptic behavior in the bar test, share of the test group",FAAH−/− and FAAH+/+ mice [3]; [10],88%
same,ED50,"FAAH−/− and FAAH+/+ mice [3]; Mus musculus, CL-11, ip, read-out: ED50, catalepsy",20 mg/kg
same,time at which rectal temperature began to return to wild type values,"FAAH−/− and FAAH+/+ mice [4]; FAAH−/− mice, 50 mg/kg",≤ 4 h
same,reduction in rectal temperature,FAAH−/− and FAAH+/+ mice [4]; [10],7.9±0.3 °C
same,ED50,"FAAH−/− and FAAH+/+ mice [4]; Mus musculus, ip, read-out: ED50, hypothermia (rectal temperature)",11 mg/kg
same,time at which the behavioral impact was readily detected,FAAH−/− mice,within five min of treatment
same,time the mice remained immobile,FAAH−/− mice; depending on dose,2 to 4 h
same,behavioral effects in FAAH+/+ mice,"FAAH−/− and FAAH+/+ mice [5]; FAAH+/+ mice, 6.25 to 50 mg/kg ip",failed to produce any significant effects
same,state of treated FAAH−/− mice 24 hr after treatment,"FAAH−/− and FAAH+/+ mice [5]; FAAH−/− mice, 24 hr after treatment",indistinguishable from FAAH^+/+ mice
same,behavioral effects in mice expressing FAAH only in the nervous system,"[6]; FAAH-TG(+) (KO+) mice, 50 mg/kg",sufficient to block the pharmacological effects; also recorded: dramatically reduced
same,behavioral effects in mice lacking FAAH,[6]; FAAH-TG(−) (KO−) mice,displayed significant behavioral effects
same,half-life in vivo,[7],on the order of minutes
C=CCN1CC[C@]23c4c5ccc(O)c4O[C@H]2C(=O)CC[C@@]3(O)[C@H]1C5 [naloxone],effect of pretreatment on activity due to anandamide,"FAAH−/− and FAAH+/+ mice [5]; FAAH−/− mice, 2 mg/kg ip in saline",failed to reduce any activity
"CCCCCc1cc(O)c2c(c1)OC(C)(C)[C@@H]1CCC(C)=C[C@@H]21 [THC, (−)-Δ^9-tetrahydrocannabinol]","dose response profiles in FAAH−/− versus FAAH+/+ mice, all behavioral assays tested","FAAH−/− and FAAH+/+ mice [5]; FAAH−/− and FAAH+/+ mice (Table 2, not given)",nearly identical
Cc1c(C(=O)NN2CCCCC2)nn(-c2ccc(Cl)cc2Cl)c1-c1ccc(Cl)cc1 [SR141716A],effect of pretreatment on anandamide-induced hypomotility,FAAH−/− and FAAH+/+ mice [1]; [11],completely blocked
same,effect of pretreatment on anandamide-induced antinociception,FAAH−/− and FAAH+/+ mice [2]; [11],completely blocked
same,effect of pretreatment on anandamide-induced catalepsy,FAAH−/− and FAAH+/+ mice [3]; [11],completely blocked
same,effect of pretreatment on anandamide-induced hypothermia,FAAH−/− and FAAH+/+ mice [4]; [11],completely blocked
same,change of hot plate response latency after treatment,"[8]; FAAH+/+ (b22 also FAAH+/−) mice, listed as SR141617A",No significant change from baseline; also recorded: modest increases in their hot plate response latencies that failed to reach significance
same,change of hot plate pain response latency after treatment,[8]; FAAH−/− mice,dramatic reduction
same,effect of pretreatment on all behavioral effects of anandamide,"FAAH−/− and FAAH+/+ mice [5]; FAAH−/− mice, 10 mg/kg ip, 10 min prior to anandamide 50 mg/kg",completely blocked
CCCCCCCC/C=C\CCCCCCCC(N)=O [oleamide],"hydrolysis by FAAH−/− brain extracts, times more slowly than homozygous wild type brain extracts",[9],50 to 100 times
